Ends that are not written are not given here.
How the values were obtained:
pepsin = test: Stability of oral formulations of Angiopep peptides in the presence of pepsin; assay type: in vitro ADME; settings: pepsin (isolated enzyme); 1 mg/mL peptide; 1 mg/25 mL pepsin (diluted 41 times, pH=1.4); 37° C.
Method: The stability of oral formulations (1 mg/mL of Angiopep peptide) was determined in the presence of 1 mg/25 mL of pepsin (diluted 41 times, pH=1.4), an enzyme present in gastric fluid, at 37° C. Table 5 provides the half-life (t1/2) for degradation of various Angiopep peptides.

BBB = test: In situ brain perfusion in mice with capillary depletion (transport across the BBB); assay type: in vivo; settings: for crossing of the BBB (overall conclusion): mouse, in vivo
Method: The initial transport was measured as a function of time.

mice = test: Induction of hypothermia (body temperature) after intravenous bolus; assay type: in vivo; settings: Table 9 grades

Sequence of pepsin (P0DJD8 63-388): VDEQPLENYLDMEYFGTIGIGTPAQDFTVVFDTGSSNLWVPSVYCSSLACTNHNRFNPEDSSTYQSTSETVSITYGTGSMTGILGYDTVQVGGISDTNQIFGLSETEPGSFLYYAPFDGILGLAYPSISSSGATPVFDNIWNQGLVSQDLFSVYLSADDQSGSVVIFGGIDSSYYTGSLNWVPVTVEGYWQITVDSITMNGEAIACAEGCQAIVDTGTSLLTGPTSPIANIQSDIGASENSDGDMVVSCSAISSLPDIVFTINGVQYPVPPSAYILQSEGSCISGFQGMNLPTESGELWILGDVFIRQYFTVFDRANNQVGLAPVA

| Molecule | half-life at 1 mg/mL (pepsin) [min] | other results |
| --- | --- | --- |
| C[C@@H](O)[C@H](N)C(=O)N[C@@H](Cc1ccccc1)C(=O)N[C@@H](Cc1ccccc1)C(=O)N[C@@H](Cc1ccc(O)cc1)C(=O)NCC(=O)NCC(=O)N[C@@H](CO)C(=O)N[C@@H](CCCNC(=N)N)C(=O)NCC(=O)N[C@@H](CCCCN)C(=O)N[C@@H](CCCNC(=N)N)C(=O)N[C@@H](CC(N)=O)C(=O)N[C@@H](CC(N)=O)C(=O)N[C@@H](Cc1ccccc1)C(=O)N[C@@H](CCCCN)C(=O)N[C@H](C(=O)N[C@@H](CCC(=O)O)C(=O)N[C@@H](CCC(=O)O)C(=O)N[C@@H](Cc1ccc(O)cc1)C(=O)O)[C@@H](C)O [An2, T F F Y G G S R G K R N N F K T E E Y, reference compound] | 40 |  |
| C[C@@H](O)[C@H](N)C(=O)N[C@@H](Cc1ccccc1)C(=O)N[C@@H](Cc1ccccc1)C(=O)N[C@@H](Cc1ccc(O)cc1)C(=O)NCC(=O)NCC(=O)N[C@@H](CO)C(=O)N[C@H](CCCNC(=N)N)C(=O)NCC(=O)N[C@H](CCCCN)C(=O)N[C@H](CCCNC(=N)N)C(=O)N[C@@H](CC(N)=O)C(=O)N[C@@H](CC(N)=O)C(=O)N[C@@H](Cc1ccccc1)C(=O)N[C@@H](CCCCN)C(=O)N[C@H](C(=O)N[C@@H](CCC(=O)O)C(=O)N[C@@H](CCC(=O)O)C(=O)N[C@@H](Cc1ccc(O)cc1)C(=O)O)[C@@H](C)O [Peptide 3D-An2] | 60 |  |
| C[C@@H](O)[C@H](NC(=O)[C@H](CCCCN)NC(=O)[C@H](Cc1ccccc1)NC(=O)[C@H](CC(N)=O)NC(=O)[C@H](CC(N)=O)NC(=O)[C@H](CCCNC(=N)N)NC(=O)[C@@H](N)CCCCN)C(=O)N[C@@H](CCC(=O)O)C(=O)N[C@@H](CCC(=O)O)C(=O)N[C@@H](Cc1ccc(O)cc1)C(=O)N[C@@H](CS)C(N)=O [Peptide P5] | 24 | crossing of the BBB (overall conclusion) (BBB): effectively cross the BBB |
| C[C@@H](O)[C@H](NC(=O)[C@H](CCCCN)NC(=O)[C@@H](Cc1ccccc1)NC(=O)[C@H](CC(N)=O)NC(=O)[C@H](CC(N)=O)NC(=O)[C@@H](CCCNC(=N)N)NC(=O)[C@H](N)CCCCN)C(=O)N[C@@H](CCC(=O)O)C(=O)N[C@@H](CCC(=O)O)C(=O)N[C@@H](Cc1ccc(O)cc1)C(=O)N[C@@H](CS)C(N)=O [Peptide P5a, D-Lys-D-Arg-Asn-Asn-D-Phe-Lys-Thr-Glu-Glu-Tyr-Cys] | 21 |  |
| CC[C@H](C)[C@H](NC(=O)[C@@H](Cc1ccc(O)cc1)NC(=O)[C@@H]1CCCN1C(=O)[C@H](CCCNC(=N)N)NC(=O)[C@H](CCCNC(=N)N)NC(=O)[C@H](CCCCNC(=O)CCCCCN1C(=O)CC(SC[C@H](NC(=O)[C@H](Cc2ccc(O)cc2)NC(=O)[C@H](CCC(=O)O)NC(=O)[C@H](CCC(=O)O)NC(=O)[C@@H](NC(=O)[C@H](CCCCN)NC(=O)[C@@H](Cc2ccccc2)NC(=O)[C@H](CC(N)=O)NC(=O)[C@H](CC(N)=O)NC(=O)[C@@H](CCCNC(=N)N)NC(=O)[C@H](N)CCCCN)[C@@H](C)O)C(N)=O)C1=O)NC(C)=O)C(=O)N[C@@H](CC(C)C)C(=O)O (stereo partly shown) [Peptide P5a-NT1] |  | brain uptake (BBB; in situ brain perfusion in mice, initial transport measured as a function of time): higher than for neurotensin (NT) |
| N=C(N)NCCC[C@H](NC(=O)[C@@H](N)CCCCN)C(=O)N[C@@H](CC(N)=O)C(=O)N[C@@H](CC(N)=O)C(=O)N[C@@H](Cc1ccccc1)C(=O)N[C@@H](CCCCN)C(=O)N[C@@H](Cc1ccc(O)cc1)C(=O)N[C@@H](CS)C(N)=O [Peptide P6] | > 240 |  |
| N=C(N)NCCC[C@@H](NC(=O)[C@H](N)CCCCN)C(=O)N[C@@H](CC(N)=O)C(=O)N[C@@H](CC(N)=O)C(=O)N[C@H](Cc1ccccc1)C(=O)N[C@@H](CCCCN)C(=O)N[C@@H](Cc1ccc(O)cc1)C(=O)N[C@@H](CS)C(N)=O [Peptide P6a, D-Lys-D-Arg-Asn-Asn-D-Phe-Lys-Tyr-Cys] | > 1080 |  |
| FYGGSRGKRNNFKTEEYC-NH2 [Peptide P1] |  | crossing of the BBB (overall conclusion) (BBB): effectively cross the BBB |
| TFFYGGSRG K R N N F KTEEY E L Y E N K P R R P Y I L (TFFYGGSRGKRNNFKTEEYELYENKPRRPYIL) [An2-NT, fusion protein] |  | Hypothermia (mice): ✓✓✓ |
